The target of the test is T1, human GnRH receptor (Homo sapiens, UniProt P30968).
T1 construct: The cDNA for the human GnRH receptor is cloned into the plasmid expression vector, pcDNA 3; expressed in transfected cells; host or cells: HEK 293 cells, stably transfected (pcDNA 3); membrane preparation
T1 sequence (P30968 1-328): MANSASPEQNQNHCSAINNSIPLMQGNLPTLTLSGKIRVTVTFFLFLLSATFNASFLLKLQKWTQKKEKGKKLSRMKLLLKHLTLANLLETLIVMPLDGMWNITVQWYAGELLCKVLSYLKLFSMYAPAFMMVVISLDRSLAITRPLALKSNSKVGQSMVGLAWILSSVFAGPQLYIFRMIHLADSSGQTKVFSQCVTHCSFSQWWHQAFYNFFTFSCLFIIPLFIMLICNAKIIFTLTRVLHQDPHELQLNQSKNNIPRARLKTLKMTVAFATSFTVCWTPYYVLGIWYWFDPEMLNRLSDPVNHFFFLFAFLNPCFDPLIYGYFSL
The test is described as follows: GnRH receptor competitive radioligand binding assay (125I-GnRH-A, HEK 293 cell membranes). The conditions noted are these: compound at 10 μM. The method in brief:
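Membranes from HEK 293 cells stably expressing human GnRH receptor (0.5–1.0 mg/mL) incubated 1 h at room temperature with ~0.05–0.1 nM 125I-GnRH-A plus competitor in 50 mM HEPES pH 7.4, 1 mM EDTA, 2.5 mM MgCl2, 0.1% BSA. Bound label collected by filtration onto PEI-soaked filters and counted by scintillation.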

The mark [1] stands for this setting: average of 1st and 2nd test, read-out: Average % Remaining (percent of specific binding remaining).
[2] abbreviates: crude compounds, 125I-GnRH-A, lower value = higher inhibition, read-out: % Remaining 1st Test (percent of specific binding remaining).
Where [3] appears, read: crude compounds, 125I-GnRH-A, lower value = higher inhibition, read-out: % Remaining 2nd Test (percent of specific binding remaining).

Where two headings read alike, the source gives them in different places.

The text below walks through data of patent publication US6646137B1, “Non-peptide GnRH agents” (priority 1998, dated 2003).

For the compound `Cc1cc2c(cc1CN(CC1CCC(CNC(=N)N)CC1)C(=O)C1CCCC1)C(C)(C)CCC2(C)C` (stereo not drawn) [Compound 85], the remaining activity at 10 µM is, setting by setting: under setting [1], 51%; under setting [2], 52%; under setting [3], 50%.
The matching figures for `N=C(N)NCC1CCC(CN(Cc2cc3c(cc2Cl)OCO3)C(=O)c2ccco2)CC1` (stereo not drawn) [Compound 86]: 51%, 56% and 45%.
`CCOc1cc(OCC)c(OCC)cc1CN(CC1CCC(CNC(=N)N)CC1)C(=O)c1ccco1` (stereo not drawn) [Compound 87]: the remaining activity at 10 µM under setting [1] was 52%, the remaining activity at 10 µM under setting [2] turned out to be 57% and the remaining activity at 10 µM under setting [3] was 47%.
Regarding `CCCCN(CCCC)c1ccc(CN(CC2CCC(CNC(=N)N)CC2)C(=O)c2ccco2)cc1` (stereo not drawn) [Compound 88], the remaining activity at 10 µM was 57% under setting [1], 58% under setting [2] and 56% under setting [3].
The matching figures for `CCOC(=O)C(=O)N(Cc1cc2c(cc1C)C(C)(C)CCC2(C)C)CC1CCC(CNC(=N)N)CC1` (stereo not drawn) [Compound 94]: 57%, 61% and 52%.
The matching figures for `Cc1cc2c(cc1CN(CC1CCC(CNC(=N)N)CC1)C(=O)c1c(C)noc1C)C(C)(C)CCC2(C)C` (stereo not drawn) [Compound 96]: 52%, 44% and 60%.
The corresponding values for `Cc1cc2c(cc1CN(CC1CCC(CNC(=N)N)CC1)C(=O)c1ccc(C#N)cc1)C(C)(C)CCC2(C)C` (stereo not drawn) [Compound 98] are 58%, 58% and 58%.
In the case of `COC(=O)CCCCCC(=O)N(Cc1cc2c(cc1C)C(C)(C)CCC2(C)C)CC1CCC(CNC(=N)N)CC1` (stereo not drawn) [Compound 100], the remaining activity at 10 µM by setting is: under setting [1], 55%; under setting [2], 52%; under setting [3], 58%.
The corresponding values for `Cc1cc2c(cc1CN(CC1CCC(CNC(=N)N)CC1)C(=O)Cc1ccccc1)C(C)(C)CCC2(C)C` (stereo not drawn) [Compound 102] are 60%, 66% and 54%.
As to `Cc1cc(C(=O)N(Cc2cc3c(cc2C)C(C)(C)CCC3(C)C)CC2CCC(CNC(=N)N)CC2)n(C(C)(C)C)n1` (stereo not drawn) [Compound 105], the remaining activity at 10 µM was 56% under setting [1], 56% under setting [2] and 56% under setting [3].
Take `CCCCC(CC)C(=O)N(Cc1cc2c(cc1C)C(C)(C)CCC2(C)C)CC1CCC(CNC(=N)N)CC1` (stereo not drawn) [Compound 117]: the remaining activity at 10 µM under setting [1] is 57%, the remaining activity at 10 µM under setting [2] is 59% and the remaining activity at 10 µM under setting [3] was determined as 54%.
For `Cc1cc2c(cc1CN(CC1CCC(CNC(=N)N)CC1)C(=O)c1cnn(-c3ccccc3)c1C(F)(F)F)C(C)(C)CCC2(C)C` (stereo not drawn) [Compound 118], the remaining activity at 10 µM came out at 60% under setting [1], 62% under setting [2] and 58% under setting [3].
For `CC(=O)O[C@@H](C)C(=O)N(Cc1cc2c(cc1C)C(C)(C)CCC2(C)C)CC1CCC(CNC(=N)N)CC1` (stereo partly drawn) [Compound 119], the remaining activity at 10 µM is, setting by setting: under setting [1], 57%; under setting [2], 57%; under setting [3], 57%.
